DC50 and Y data for 12 molecules are collected here from patent US12103920B2, “Cereblon binding compounds, compositions thereof, and methods of treatment therewith” (Celgene Corporation, priority 2020, dated 2024).

Broadly, the DC50 is the concentration giving 50% degradation. Read a high DC50 as a less potent degrader.

Each structure is given as a SMILES string. Structures can show the parent of a compound that is named as a salt.

The target of this test is T1, AR protein in VCaP cells (Homo sapiens, UniProt P10275).
T1 construct: endogenous in cells; host or cells: VCaP cells
T1 sequence (P10275 1-920): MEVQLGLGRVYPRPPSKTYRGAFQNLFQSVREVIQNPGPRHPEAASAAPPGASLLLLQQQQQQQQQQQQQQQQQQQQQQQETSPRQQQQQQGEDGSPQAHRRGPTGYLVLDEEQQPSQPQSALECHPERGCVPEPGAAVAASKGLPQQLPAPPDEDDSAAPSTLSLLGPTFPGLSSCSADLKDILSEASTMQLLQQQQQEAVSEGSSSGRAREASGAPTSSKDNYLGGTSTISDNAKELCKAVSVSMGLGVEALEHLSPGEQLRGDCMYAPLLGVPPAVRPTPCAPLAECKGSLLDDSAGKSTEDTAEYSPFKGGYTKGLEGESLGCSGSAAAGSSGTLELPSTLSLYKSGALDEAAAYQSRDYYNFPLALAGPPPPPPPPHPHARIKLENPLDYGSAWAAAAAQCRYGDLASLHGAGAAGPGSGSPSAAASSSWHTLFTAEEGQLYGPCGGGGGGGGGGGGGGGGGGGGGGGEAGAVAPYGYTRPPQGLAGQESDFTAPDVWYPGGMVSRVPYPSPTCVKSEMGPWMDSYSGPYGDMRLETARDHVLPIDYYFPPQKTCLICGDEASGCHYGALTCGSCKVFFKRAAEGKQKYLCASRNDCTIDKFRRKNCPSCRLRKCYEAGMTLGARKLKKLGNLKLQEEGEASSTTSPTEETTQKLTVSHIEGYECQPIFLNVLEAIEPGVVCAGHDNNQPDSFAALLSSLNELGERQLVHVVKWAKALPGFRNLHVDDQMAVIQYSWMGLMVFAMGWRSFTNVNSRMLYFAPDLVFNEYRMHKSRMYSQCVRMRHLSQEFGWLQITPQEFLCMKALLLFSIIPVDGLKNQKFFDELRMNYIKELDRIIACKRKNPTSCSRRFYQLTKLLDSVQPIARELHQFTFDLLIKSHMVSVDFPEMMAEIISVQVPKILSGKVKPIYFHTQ
Put plainly: VCAP AR Degradation Assay. The format is cell-based. The following applies: 24 h, AR ELISA; for DC50: concentration at 50% of DMSO control (50% AR degradation); for Y: lowest measured AR level normalized to DMSO control. As to the method:
VCAP AR Degradation Assay. Test compounds were pre-dispensed into a Corning CellBind 96-well clear bottom plate (Cat #3300) using an acoustic dispenser to make a 10-point concentration series at 1:3 dilution for each compound. The final top concentration of each compound was 5 μM. DMSO at a final concentration of 0.1% was used as a control. VCaP cells cultured in DMEM with 8% fetal bovine serum (FBS) were seeded at 50K cells per well in a 200 μL volume into the compound plate and incubated at 37° C. in a CO2 incubator for 24 h. The medium was carefully removed from the cells and the plate was placed on ice. One hundred μL of ice-cold 1× cell lysis buffer from Cell Signaling Technologies (Cat #9803) was added to each well of the cells and the plate was incubated at 4° C. on a shaker for 1 h. Fifteen μL of cell lysate was used for AR ELISA detection using a PathScan Total Sandwich AR ELISA kit (Cell Signaling Technology, Cat #12580). AR levels in compound-treated wells were normalized to that of DMSO control and expressed as percent of control (PoC) (y). A Four Parameter Logistic Model (Sigmoidal Dose-Response Model) was used to determine the compound's DC50, and EC50, using the following equation: y=(A+((B−A)/(1+((C/x)^D)))) • A=YMin (lowest AR level normalized to DMSO control in response to compound treatment, as determined by curve fit) • B=YMax (maximum AR level as determined by curve fit) • C=EC50 • D=Hill Slope • x=compound concentration • EC50=the concentration of compound when y=(YMax−YMin)/2 • DC50=the concentration of the compound when y=50% of DMSO control (50% AR degradation) • y=AR protein level normalized to DMSO control
The lowest measured AR level normalized to DMSO control in response to compound treatment, termed Y value, was used to characterize the compound-mediated AR degradation efficiency.
In general terms: ELISA stands for enzyme-linked immunosorbent assay.

Turning to `C[C@@H]1C[C@H](OCC[C@H]2CC[C@H](N3C(=S)N(c4cnc(C#N)c(C(F)(F)F)c4)C(=O)C3(C)C)CC2)C[C@H](C)N1CC(=O)Nc1cccc(NC2CCC(=O)NC2=O)c1` (stereo partly drawn) [Cmpd 35, 2-((2R,4r,6S)-4-(2-((trans)-4-(3-(6-Cyano-5-(trifluoromethyl)pyridin-3-yl)-5,5-dimethyl-4-oxo-2-thioxoimidazolidin-1-yl)cyclohexyl)ethoxy)-2,6-dimethylpiperidin-1-yl)-N-(3-((2,6-dioxopiperidin-3-yl)amino)phenyl)acetamide hydrochloride], the DC50 fell in the range of 10 to 100 nM and the Y result is reported as “* (0<Y≤15%)”.
Taken in the same sequence, the figures for `CC1(C)C(=O)N(c2cnc(C#N)c(C(F)(F)F)c2)C(=S)N1[C@H]1CC[C@H](OCCC2CCN(CC(=O)Nc3cccc(NC4CCC(=O)NC4=O)c3)CC2(F)F)CC1` (stereo partly drawn) [Cmpd 46, 2-(4-(2-(((trans)-4-(3-(6-Cyano-5-(trifluoromethyl)pyridin-3-yl)-5,5-dimethyl-4-oxo-2-thioxoimidazolidin-1-yl)cyclohexyl)oxy)ethyl)-3,3-difluoropiperidin-1-yl)-N-(3-((2,6-dioxopiperidin-3-yl)amino)phenyl)acetamide hydrochloride] were at most 5 nM and “* (0<Y≤15%)”.
The matching figures for `C[C@@H]1C[C@H](CCO[C@H]2CC[C@H](N3C(=S)N(c4ccc(C#N)c(C(F)(F)F)c4)C(=O)C3(C)C)CC2)C[C@H](C)N1CC(=O)Nc1cccc(NC2CCC(=O)NC2=O)c1` (stereo partly drawn) [Cmpd 16, 2-((2R,4r,6S)-4-(2-((trans-4-(3-(4-Cyano-3-(trifluoromethyl)phenyl)-5,5-dimethyl-4-oxo-2-thioxoimidazolidin-1-yl)cyclohexyl)oxy)ethyl)-2,6-dimethylpiperidin-1-yl)-N-(3-((2,6-dioxopiperidin-3-yl)amino)phenyl)acetamide hydrochloride]: 5 to 10 nM and “* (0<Y≤15%)”.
Regarding `C[C@@H]1C[C@H](OCCC[C@H]2CC[C@H](N3C(=S)N(c4ccc(C#N)c(C(F)(F)F)c4)C(=O)C3(C)C)CC2)C[C@H](C)N1CC(=O)Nc1cccc(NC2CCC(=O)NC2=O)c1` (stereo partly drawn) [Cmpd 32, 2-((2R,4r,6S)-4-(3-((trans)-4-(3-(4-Cyano-3-(trifluoromethyl)phenyl)-5,5-dimethyl-4-oxo-2-thioxoimidazolidin-1-yl)cyclohexyl)propoxy)-2,6-dimethylpiperidin-1-yl)-N-(3-((2,6-dioxopiperidin-3-yl)amino)phenyl)acetamide], the DC50 is 10 to 100 nM and the Y result is given as “** (15%<Y≤20%)”.
For the molecule `C[C@@H]1C[C@@H](CCO[C@H]2CC[C@H](N3C(=S)N(c4cnc(C#N)c(C(F)(F)F)c4)C(=O)C3(C)C)CC2)C[C@H](C)N1CC(=O)Nc1cccc(NC2CCC(=O)NC2=O)c1` (stereo partly drawn) [Cmpd 22, 2-((2S,4s,6R)-4-(2-(((trans)-4-(3-(6-Cyano-5-(trifluoromethyl)pyridin-3-yl)-5,5-dimethyl-4-oxo-2-thioxoimidazolidin-1-yl)cyclohexyl)oxy)ethyl)-2,6-dimethylpiperidin-1-yl)-N-(3-((2,6-dioxopiperidin-3-yl)amino)phenyl)acetamide], the DC50 is at most 5 nM and the Y entry was “* (0<Y≤15%)”.
The matching figures for `C[C@@H]1CN(CCC[C@H]2CC[C@H](N3C(=S)N(c4ccc(C#N)c(C(F)(F)F)c4)C(=O)C3(C)C)CC2)C[C@H](C)N1CC(=O)Nc1cccc(NC2CCC(=O)NC2=O)c1` (stereo partly drawn) [Cmpd 2, 2-((2R,6S)-4-(3-(trans-4-(3-(4-Cyano-3-(trifluoromethyl)phenyl)-5,5-dimethyl-4-oxo-2-thioxoimidazolidin-1-yl)cyclohexyl)propyl)-2,6-dimethylpiperazin-1-yl)-N-(3-((2,6-dioxopiperidin-3-yl)amino)phenyl)acetamide]: 10 to 100 nM and “* (0<Y≤15%)”.
Turning to `C[C@@H]1CN(CCC[C@H]2CC[C@H](N3C(=S)N(c4ccc(C#N)c(C(F)(F)F)c4)C(=O)C3(C)C)CC2)C[C@H](C)N1CC(=O)Nc1cc(F)cc(NC2CCC(=O)NC2=O)c1` (stereo partly drawn) [Cmpd 38, 2-((2R,6S)-4-(3-((trans)-4-(3-(4-Cyano-3-(trifluoromethyl)phenyl)-5,5-dimethyl-4-oxo-2-thioxoimidazolidin-1-yl)cyclohexyl)propyl)-2,6-dimethylpiperazin-1-yl)-N-(3-((2,6-dioxopiperidin-3-yl)amino)-5-fluorophenyl)acetamide], the DC50 was in the range of 5 to 10 nM and the Y entry is given as “* (0<Y≤15%)”.
Taken in the same sequence, the figures for `CC1(C)C(=O)N(c2cnc(C#N)c(C(F)(F)F)c2)C(=S)N1[C@H]1CC[C@H](OCCN2CCN(CC(=O)Nc3cccc(NC4CCC(=O)NC4=O)c3)[C@@H](C(F)(F)F)C2)CC1` (stereo partly drawn) [Cmpd 20, 2-((R)-4-(2-((trans-4-(3-(6-Cyano-5-(trifluoromethyl)pyridin-3-yl)-5,5-dimethyl-4-oxo-2-thioxoimidazolidin-1-yl)cyclohexyl)oxy)ethyl)-2-(trifluoromethyl)piperazin-1-yl)-N-(3-((2,6-dioxopiperidin-3-yl)amino)phenyl)acetamide hydrochloride] were at most 5 nM and “* (0<Y≤15%)”.
Taken in the same sequence, the figures for `C[C@@H]1CN(CCC[C@H]2CC[C@H](N3C(=S)N(c4cnc(C#N)c(C(F)(F)F)c4)C(=O)C3(C)C)CC2)C[C@H](C)N1CC(=O)Nc1cccc(NC2CCC(=O)NC2=O)c1` (stereo partly drawn) [Cmpd 11, 2-((2R,6S)-4-(3-(trans-4-(3-(6-Cyano-5-(trifluoromethyl)pyridin-3-yl)-5,5-dimethyl-4-oxo-2-thioxoimidazolidin-1-yl)cyclohexyl)propyl)-2,6-dimethylpiperazin-1-yl)-N-(3-((2,6-dioxopiperidin-3-yl)amino)phenyl)acetamide hydrochloride] were at most 5 nM and “* (0<Y≤15%)”.
As for `C[C@@H]1C[C@H](OCC[C@H]2CC[C@H](N3C(=S)N(c4ccc(C#N)c(C(F)(F)F)c4)C(=O)C3(C)C)CC2)C[C@H](C)N1CC(=O)Nc1cccc(NC2CCC(=O)NC2=O)c1` (stereo partly drawn) [Cmpd 36, 2-((2R,4r,6S)-4-(2-((trans)-4-(3-(4-Cyano-3-(trifluoromethyl)phenyl)-5,5-dimethyl-4-oxo-2-thioxoimidazolidin-1-yl)cyclohexyl)ethoxy)-2,6-dimethylpiperidin-1-yl)-N-(3-((2,6-dioxopiperidin-3-yl)amino)phenyl)acetamide], the DC50 fell in the range of 10 to 100 nM and the Y result is on record as “** (15%<Y≤20%)”.
Taken in the same sequence, the figures for `C[C@@H]1C[C@H](CCO[C@H]2CC[C@H](N3C(=S)N(c4cnc(C#N)c(C(F)(F)F)c4)C(=O)C3(C)C)CC2)C[C@H](C)N1CC(=O)Nc1cccc(NC2CCC(=O)NC2=O)c1` (stereo partly drawn) [Cmpd 21, 2-((2S,4r,6R)-4-(2-((trans-4-(3-(6-Cyano-5-(trifluoromethyl)pyridin-3-yl)-5,5-dimethyl-4-oxo-2-thioxoimidazolidin-1-yl)cyclohexyl)oxy)ethyl)-2,6-dimethylpiperidin-1-yl)-N-(3-((2,6-dioxopiperidin-3-yl)amino)phenyl)acetamide] were at most 5 nM and “* (0<Y≤15%)”.
For the molecule `C[C@@H]1CN(CCO[C@H]2CC[C@H](N3C(=S)N(c4ccc(C#N)c(Cl)c4)C(=O)C3(C)C)CC2)C[C@H](C)N1CC(=O)Nc1cccc(NC2CCC(=O)NC2=O)c1` (stereo partly drawn) [Cmpd 4, 2-((2R,6S)-4-(2-((trans-4-(3-(3-Chloro-4-cyanophenyl)-5,5-dimethyl-4-oxo-2-thioxoimidazolidin-1-yl)cyclohexyl)oxy)ethyl)-2,6-dimethylpiperazin-1-yl)-N-(3-((2,6-dioxopiperidin-3-yl)amino)phenyl)acetamide hydrochloride], the DC50 was at most 5 nM and the Y entry is on record as “** (15%<Y≤20%)”.
